Target: KRas (Homo sapiens, UniProt P01116, G12C)
Assay: KRas degradation in NCI-H2030 cells by Western blot, normalized to GAPDH (data of Table 14)
Type: cell-based
Parameters: host or cells: NCI-H2030
Details: for Percent Degradation at Indicated Concentration (μM): H2030; for Dmax: NCI-H2030
Procedure, shortened: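 Both lines are homozygous for KRas G12C and were serum-starved for 24 h before treatment with compound at 0.3, 1 or 3 μM in 0.1% DMSO: 24 h for VHL-based compounds, 72 h for the rest. Western blot of 10 μg lysate gave KRas signal normalized to GAPDH, and percent degradation was expressed relative to the DMSO control.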

Percent Degradation at Indicated Concentration (μM) (0.3 μM) | Percent Degradation at Indicated Concentration (μM) (1 μM) | Percent Degradation at Indicated Concentration (μM) (3 μM) | Dmax | Compound
C (Percent Degradation: C ≤ 35) | C (Percent Degradation: C ≤ 35) | C (Percent Degradation: C ≤ 35) | ≤ 35% | C=CC(=O)N1CCN(c2nc(NCCC(=O)N(C)CCOCCOCCN3CCN(CC(=O)N[C@H](C(=O)N4C[C@H](O)C[C@H]4C(=O)N[C@@H](C)c4ccc(-c5scnc5C)cc4)C(C)(C)C)CC3)nc3c(F)c(-c4cc(O)cc5ccccc45)c(Cl)cc23)CC1 [compound 249, (2S,4R)-1-((2S)-2-(2-(4-(2-(2-(2-(3-((4-(4-acryloylpiperazin-1-yl)-6-chloro-8-fluoro-7-(3-hydroxynaphthalen-1-yl)quinazolin-2-yl)amino)-N-methylpropanamido)ethoxy)eth-oxy)ethyl)piperazin-1-yl)acetamido)-3,3-dimethylbutanoyl)-4-hydroxy-N-((S)-1-(4-(4-methylthiazol-5-yl)phenyl)ethyl)pyrrolidine-2-carboxamide]
C (Percent Degradation: C ≤ 35) | C (Percent Degradation: C ≤ 35) | C (Percent Degradation: C ≤ 35) | ≤ 35% | CN[C@@H](C)C(=O)N[C@H](C(=O)N1CCC[C@H]1c1nc(-c2ccc(OCCOCCOCCOCCN(C)C(=O)CCNc3nc(N4CCN(C(C)=O)CC4)c4cc(Cl)c(-c5cc(O)cc6ccccc56)c(F)c4n3)c3ccccc23)cs1)C1CCCCC1 [compound 268, 3-((4-(4-acetylpiperazin-1-yl)-6-chloro-8-fluoro-7-(3-hydroxynaphthalen-1-yl)quinazolin-2-yl)amino)-N-(2-(2-(2-(2-((4-(2-((S)-1-((S)-2-cyclohexyl-2-((S)-2-(methylamino)propan-amido)acetyl)pyrrolidin-2-yl)thiazol-4-yl)naphthalen-1-yl)oxy)ethoxy)ethoxy)eth-oxy)ethyl)-N-methylpropanamide]
C (Percent Degradation: C ≤ 35) | C (Percent Degradation: C ≤ 35) | C (Percent Degradation: C ≤ 35) | ≤ 35% | CN[C@@H](C)C(=O)N[C@H](C(=O)N1CCC[C@H]1c1nc(-c2ccc(OCCOCCOCCOCCOCCN(C)C(=O)CCNc3nc(N4CCN(C(C)=O)CC4)c4cc(Cl)c(-c5cc(O)cc6ccccc56)c(F)c4n3)c3ccccc23)cs1)C1CCCCC1 [compound 269, 3-((4-(4-acetylpiperazin-1-yl)-6-chloro-8-fluoro-7-(3-hydroxynaphthalen-1-yl)quinazolin-2-yl)amino)-N-(14-((4-(2-((S)-1-((S)-2-cyclohexyl-2-((S)-2-(methylamino)propan-amido)acetyl)pyrrolidin-2-yl)thiazol-4-yl)naphthalen-1-yl)oxy)-3,6,9,12-tetraoxatetradecyl)-N-methylpropanamide]
C (Percent Degradation: C ≤ 35) | C (Percent Degradation: C ≤ 35) | C (Percent Degradation: C ≤ 35) | ≤ 35% | C=CC(=O)N1CCN(c2nc(NCCC(=O)N(C)CCOCCOc3ccc(-c4csc([C@@H]5CCCN5C(=O)[C@@H](NC(=O)[C@H](C)NC)C5CCCCC5)n4)c4ccccc34)nc3c(F)c(-c4cc(O)cc5ccccc45)c(Cl)cc23)CC1 [compound 271, 3-((4-(4-acryloylpiperazin-1-yl)-6-chloro-8-fluoro-7-(3-hydroxynaphthalen-1-yl)quinazolin-2-yl)amino)-N-(2-(2-((4-(2-((S)-1-((S)-2-cyclohexyl-2-((S)-2-(methylamino)propan-amido)acetyl)pyrrolidin-2-yl)thiazol-4-yl)naphthalen-1-yl)oxy)ethoxy)ethyl)-N-methylpropanamide]
C (Percent Degradation: C ≤ 35) | C (Percent Degradation: C ≤ 35) | C (Percent Degradation: C ≤ 35) | ≤ 35% | C=CC(=O)N1CCN(c2nc(NCCC(=O)N(C)CCOCCOCCOCCOc3ccc(-c4csc([C@@H]5CCCN5C(=O)[C@@H](NC(=O)[C@H](C)NC)C5CCCCC5)n4)c4ccccc34)nc3c(F)c(-c4cc(O)cc5ccccc45)c(Cl)cc23)CC1 [compound 273, 3-((4-(4-acryloylpiperazin-1-yl)-6-chloro-8-fluoro-7-(3-hydroxynaphthalen-1-yl)quinazolin-2-yl)amino)-N-(2-(2-(2-(2-((4-(2-((S)-1-((S)-2-cyclohexyl-2-((S)-2-(methylamino)propan-amido)acetyl)pyrrolidin-2-yl)thiazol-4-yl)naphthalen-1-yl)oxy)ethoxy)ethoxy)eth-oxy)ethyl)-N-methylpropanamide]
C (Percent Degradation: C ≤ 35) | C (Percent Degradation: C ≤ 35) | C (Percent Degradation: C ≤ 35) | ≤ 35% | C=CC(=O)N1CCN(c2nc(NCCC(=O)N(C)CCOCCOCCNC(=O)c3ccc(NC(=O)[C@@H]4N[C@@H](CC(C)(C)C)[C@](C#N)(c5ccc(Cl)cc5F)[C@H]4c4cccc(Cl)c4F)c(OC)c3)nc3c(F)c(-c4cc(O)cc5ccccc45)c(Cl)cc23)CC1 [compound 302, (2R,3S,4R,5S)-N-(4-((2-(2-(2-(3-((4-(4-acryloylpiperazin-1-yl)-6-chloro-8-fluoro-7-(3-hydroxynaphthalen-1-yl)quinazolin-2-yl)amino)-N-methylpropanamido)ethoxy)eth-oxy)ethyl)carbamoyl)-2-methoxyphenyl)-3-(3-chloro-2-fluorophenyl)-4-(4-chloro-2-fluorophenyl)-4-cyano-5-neopentylpyrrolidine-2-carboxamide]
C (Percent Degradation: C ≤ 35) | C (Percent Degradation: C ≤ 35) | C (Percent Degradation: C ≤ 35) | ≤ 35% | C=CC(=O)N1CCN(c2nc(NCCC(=O)N(C)CCOCCOCCOCCNC(=O)c3ccc(NC(=O)[C@@H]4N[C@@H](CC(C)(C)C)[C@](C#N)(c5ccc(Cl)cc5F)[C@H]4c4cccc(Cl)c4F)c(OC)c3)nc3c(F)c(-c4cc(O)cc5ccccc45)c(Cl)cc23)CC1 [compound 303, (2R,3S,4R,5S)-N-(4-((15-((4-(4-acryloylpiperazin-1-yl)-6-chloro-8-fluoro-7-(3-hydroxynaphthalen-1-yl)quinazolin-2-yl)amino)-12-methyl-13-oxo-3,6,9-trioxa-12-azapentadecyl)carbamoyl)-2-methoxyphenyl)-3-(3-chloro-2-fluorophenyl)-4-(4-chloro-2-fluorophenyl)-4-cyano-5-neopentylpyrrolidine-2-carboxamide]

From patent US12552783B2, “Modulators of proteolysis and associated methods of use” (Arvinas Operations, Inc., priority 2018, dated 2026)
